In paper PMC12260505, “First-in-Human Phase I/IIa Study of the First-in-Class CDK2/4/6 Inhibitor PF-06873600 Alone or with Endocrine Therapy in Patients with Breast Cancer” (Clinical Cancer Research, 2025):

Test: Adverse events graded by NCI CTCAE version 4.03, phase I/IIa study
Assay type: in vivo
Description: Part 1 included adult patients with HR^+/HER2^− advanced breast cancer or mBC (third- or fourth-line setting), locally recurrent/advanced or metastatic TNBC, or advanced platinum-resistant epithelial ovarian cancer/fallopian tube cancer/primary peritoneal cancer who received oral PF-06873600 at doses of 1 to 50 mg twice daily or oral PF-06873600 plus ET (letrozole or fulvestrant). Primary endpoints for part 1 dose escalation determined safety and tolerability to define dose-limiting toxicities (DLT), estimate the maximum tolerated dose, and select the recommended dose for expansion (RDE). Safety endpoints included adverse events (AE) characterized by type, frequency, severity [as graded by NCI Common Terminology Criteria for Adverse Events (CTCAE) version 4.03], timing, seriousness, and relationship to study therapy. Laboratory abnormalities were characterized by type, frequency, severity (as graded by NCI CTCAE version 4.03), timing, vital sign abnormalities, and heart rate–corrected QT interval (e.g., QTcF). Secondary endpoints included PK, preliminary antitumor activity as assessed using RECIST version 1.1, time-to-event endpoints including objective response rate (ORR), duration of response (DoR), progression-free survival (PFS), time to progression (TTP), and modulation of tumor CDK biomarkers [phosphorylated Rb (pRb), Ki67]. Exploratory endpoints included molecular profiling of tumor and ctDNA and the relationship to clinical outcome.
AEs were graded by NCI CTCAE version 4.03.

[1] = Part 2A 25 mg BID IR + Fulvestrant, N = 45
[2] = Part 2C 25 mg BID IR + Fulvestrant, N = 28

SMILES: C[C@@]1(O)CCC[C@H]1n1c(=O)c(C(F)F)cc2cnc(NC3CCN(S(C)(=O)=O)CC3)nc21 [PF-06873600]
- Treatment-related TEAE, Abdominal pain, Grade 1 [1]: 7 (15.6) n (%)
- Treatment-related TEAE, Abdominal pain, Grade 2 [1]: 1 (2.2) n (%)
- Treatment-related TEAE, Abdominal pain, Grade 3/4 [1]: 0 n (%)
- Treatment-related TEAE, Abdominal pain, Grade 5 [1]: 0 n (%)
- Treatment-related TEAE, Abdominal pain, Total [1]: 8 (17.8) n (%)
- Treatment-related TEAE, Alopecia, Grade 1 [1]: 7 (15.6) n (%)
- Treatment-related TEAE, Alopecia, Grade 2 [1]: 9 (20.0) n (%)
- Treatment-related TEAE, Alopecia, Grade 3/4 [1]: 0 n (%)
- Treatment-related TEAE, Alopecia, Grade 5 [1]: 0 n (%)
- Treatment-related TEAE, Alopecia, Total [1]: 16 (35.6 ) n (%)
- Treatment-related TEAE, Anemia, Grade 1 [1]: 3 (6.7) n (%)
- Treatment-related TEAE, Anemia, Grade 2 [1]: 10 (22.2 ) n (%)
- Treatment-related TEAE, Anemia, Grade 3/4 [1]: 7 (15.6) n (%)
- Treatment-related TEAE, Anemia, Grade 5 [1]: 0 n (%)
- Treatment-related TEAE, Anemia, Total [1]: 20 (44.4 ) n (%)
- Treatment-related TEAE, Any adverse event, Grade 1 [1]: 9 (20.0) n (%)
- Treatment-related TEAE, Any adverse event, Grade 2 [1]: 17 (37.8 ) n (%)
- Treatment-related TEAE, Any adverse event, Grade 3/4 [1]: 19 (42.2 ) n (%)
- Treatment-related TEAE, Any adverse event, Grade 5 [1]: 0 n (%)
- Treatment-related TEAE, Any adverse event, Total [1]: 45 (100. 0) n (%)
- Treatment-related TEAE, Constipation, Grade 1 [1]: 4 (8.9) n (%)
- Treatment-related TEAE, Constipation, Grade 2 [1]: 5 (11.1) n (%)
- Treatment-related TEAE, Constipation, Grade 3/4 [1]: 0 n (%)
- Treatment-related TEAE, Constipation, Grade 5 [1]: 0 n (%)
- Treatment-related TEAE, Constipation, Total [1]: 9 (20.0) n (%)
- Treatment-related TEAE, Decreased appetite, Grade 1 [1]: 6 (13.3) n (%)
- Treatment-related TEAE, Decreased appetite, Grade 2 [1]: 1 (2.2) n (%)
- Treatment-related TEAE, Decreased appetite, Grade 3/4 [1]: 0 n (%)
- Treatment-related TEAE, Decreased appetite, Grade 5 [1]: 0 n (%)
- Treatment-related TEAE, Decreased appetite, Total [1]: 7 (15.6) n (%)
- Treatment-related TEAE, Diarrhea, Grade 1 [1]: 7 (15.6) n (%)
- Treatment-related TEAE, Diarrhea, Grade 2 [1]: 1 (2.2) n (%)
- Treatment-related TEAE, Diarrhea, Grade 3/4 [1]: 2 (4.4) n (%)
- Treatment-related TEAE, Diarrhea, Grade 5 [1]: 0 n (%)
- Treatment-related TEAE, Diarrhea, Total [1]: 10 (22.2 ) n (%)
- Treatment-related TEAE, Dizziness, Grade 1 [1]: 6 (13.3) n (%)
- Treatment-related TEAE, Dizziness, Grade 2 [1]: 2 (4.4) n (%)
- Treatment-related TEAE, Dizziness, Grade 3/4 [1]: 0 n (%)
- Treatment-related TEAE, Dizziness, Grade 5 [1]: 0 n (%)
- Treatment-related TEAE, Dizziness, Total [1]: 8 (17.8) n (%)
- Treatment-related TEAE, Fatigue, Grade 1 [1]: 10 (22.2 ) n (%)
- Treatment-related TEAE, Fatigue, Grade 2 [1]: 13 (28.9 ) n (%)
- Treatment-related TEAE, Fatigue, Grade 3/4 [1]: 5 (11.1) n (%)
- Treatment-related TEAE, Fatigue, Grade 5 [1]: 0 n (%)
- Treatment-related TEAE, Fatigue, Total [1]: 28 (62.2 ) n (%)
- Treatment-related TEAE, Headache, Grade 1 [1]: 12 (26.7 ) n (%)
- Treatment-related TEAE, Headache, Grade 2 [1]: 4 (8.9) n (%)
- Treatment-related TEAE, Headache, Grade 3/4 [1]: 0 n (%)
- Treatment-related TEAE, Headache, Grade 5 [1]: 0 n (%)
- Treatment-related TEAE, Headache, Total [1]: 16 (35.6 ) n (%)
- Treatment-related TEAE, Leukopenia, Grade 1 [1]: 1 (2.2) n (%)
- Treatment-related TEAE, Leukopenia, Grade 2 [1]: 8 (17.8) n (%)
- Treatment-related TEAE, Leukopenia, Grade 3/4 [1]: 2 (4.4) n (%)
- Treatment-related TEAE, Leukopenia, Grade 5 [1]: 0 n (%)
- Treatment-related TEAE, Leukopenia, Total [1]: 11 (24.4 ) n (%)
- Treatment-related TEAE, Nausea, Grade 1 [1]: 22 (48.9 ) n (%)
- Treatment-related TEAE, Nausea, Grade 2 [1]: 6 (13.3) n (%)
- Treatment-related TEAE, Nausea, Grade 3/4 [1]: 1 (2.2) n (%)
- Treatment-related TEAE, Nausea, Grade 5 [1]: 0 n (%)
- Treatment-related TEAE, Nausea, Total [1]: 29 (64.4 ) n (%)
- Treatment-related TEAE, Neutropenia, Grade 1 [1]: 4 (8.9) n (%)
- Treatment-related TEAE, Neutropenia, Grade 2 [1]: 5 (11.1) n (%)
- Treatment-related TEAE, Neutropenia, Grade 3/4 [1]: 13 (28.9 ) n (%)
- Treatment-related TEAE, Neutropenia, Grade 5 [1]: 0 n (%)
- Treatment-related TEAE, Neutropenia, Total [1]: 22 (48.9 ) n (%)
- Treatment-related TEAE, Thrombocytopenia, Grade 1 [1]: 5 (11.1) n (%)
- Treatment-related TEAE, Thrombocytopenia, Grade 2 [1]: 2 (4.4) n (%)
- Treatment-related TEAE, Thrombocytopenia, Grade 3/4 [1]: 3 (6.7) n (%)
- Treatment-related TEAE, Thrombocytopenia, Grade 5 [1]: 0 n (%)
- Treatment-related TEAE, Thrombocytopenia, Total [1]: 10 (22.2 ) n (%)
- Treatment-related TEAE, Vomiting, Grade 1 [1]: 12 (26.7 ) n (%)
- Treatment-related TEAE, Vomiting, Grade 2 [1]: 3 (6.7) n (%)
- Treatment-related TEAE, Vomiting, Grade 3/4 [1]: 1 (2.2) n (%)
- Treatment-related TEAE, Vomiting, Grade 5 [1]: 0 n (%)
- Treatment-related TEAE, Vomiting, Total [1]: 16 (35.6 ) n (%)
- Treatment-related TEAE, Abdominal pain, Grade 1 [2]: 0 n (%)
- Treatment-related TEAE, Abdominal pain, Grade 2 [2]: 0 n (%)
- Treatment-related TEAE, Abdominal pain, Grade 3/4 [2]: 0 n (%)
- Treatment-related TEAE, Abdominal pain, Grade 5 [2]: 0 n (%)
- Treatment-related TEAE, Abdominal pain, Total [2]: 0 n (%)
- Treatment-related TEAE, Alopecia, Grade 1 [2]: 6 (21.4) n (%)
- Treatment-related TEAE, Alopecia, Grade 2 [2]: 2 (7.1) n (%)
- Treatment-related TEAE, Alopecia, Grade 3/4 [2]: 0 n (%)
- Treatment-related TEAE, Alopecia, Grade 5 [2]: 0 n (%)
- Treatment-related TEAE, Alopecia, Total [2]: 8 (28.6) n (%)
- Treatment-related TEAE, Anemia, Grade 1 [2]: 4 (14.3) n (%)
- Treatment-related TEAE, Anemia, Grade 2 [2]: 3 (10.7) n (%)
- Treatment-related TEAE, Anemia, Grade 3/4 [2]: 3 (10.7) n (%)
- Treatment-related TEAE, Anemia, Grade 5 [2]: 0 n (%)
- Treatment-related TEAE, Anemia, Total [2]: 10 (35.7 ) n (%)
- Treatment-related TEAE, Any adverse event, Grade 1 [2]: 7 (25.0) n (%)
- Treatment-related TEAE, Any adverse event, Grade 2 [2]: 8 (28.6) n (%)
- Treatment-related TEAE, Any adverse event, Grade 3/4 [2]: 8 (28.6) n (%)
- Treatment-related TEAE, Any adverse event, Grade 5 [2]: 1 (3.6) n (%)
- Treatment-related TEAE, Any adverse event, Total [2]: 24 (85.7 ) n (%)
- Treatment-related TEAE, Constipation, Grade 1 [2]: 1 (3.6) n (%)
- Treatment-related TEAE, Constipation, Grade 2 [2]: 2 (7.1) n (%)
- Treatment-related TEAE, Constipation, Grade 3/4 [2]: 0 n (%)
- Treatment-related TEAE, Constipation, Grade 5 [2]: 0 n (%)
- Treatment-related TEAE, Constipation, Total [2]: 3 (10.7) n (%)
- Treatment-related TEAE, Decreased appetite, Grade 1 [2]: 2 (7.1) n (%)
- Treatment-related TEAE, Decreased appetite, Grade 2 [2]: 0 n (%)
- Treatment-related TEAE, Decreased appetite, Grade 3/4 [2]: 0 n (%)
- Treatment-related TEAE, Decreased appetite, Grade 5 [2]: 0 n (%)
- Treatment-related TEAE, Decreased appetite, Total [2]: 2 (7.1) n (%)
- Treatment-related TEAE, Diarrhea, Grade 1 [2]: 4 (14.3) n (%)
- Treatment-related TEAE, Diarrhea, Grade 2 [2]: 1 (3.6) n (%)
- Treatment-related TEAE, Diarrhea, Grade 3/4 [2]: 0 n (%)
- Treatment-related TEAE, Diarrhea, Grade 5 [2]: 0 n (%)
- Treatment-related TEAE, Diarrhea, Total [2]: 5 (17.9) n (%)
- Treatment-related TEAE, Dizziness, Grade 1 [2]: 0 n (%)
- Treatment-related TEAE, Dizziness, Grade 2 [2]: 1 (3.6) n (%)
- Treatment-related TEAE, Dizziness, Grade 3/4 [2]: 0 n (%)
- Treatment-related TEAE, Dizziness, Grade 5 [2]: 0 n (%)
- Treatment-related TEAE, Dizziness, Total [2]: 1 (3.6) n (%)
- Treatment-related TEAE, Fatigue, Grade 1 [2]: 7 (25.0) n (%)
- Treatment-related TEAE, Fatigue, Grade 2 [2]: 0 n (%)
- Treatment-related TEAE, Fatigue, Grade 3/4 [2]: 2 (7.1) n (%)
- Treatment-related TEAE, Fatigue, Grade 5 [2]: 0 n (%)
- Treatment-related TEAE, Fatigue, Total [2]: 9 (32.1) n (%)
- Treatment-related TEAE, Headache, Grade 1 [2]: 9 (32.1) n (%)
- Treatment-related TEAE, Headache, Grade 2 [2]: 0 n (%)
